In patent publication US12240890B2, “Compositions and methods for treating and/or preventing pathogenic fungal infection and for maintenance of microbiome commensalism” (priority 2017, dated 2025):

Experiments:
Candida albicans = Candida albicans culture growth; format: cell-based; settings: hyphal inducing conditions (broth culture containing serum)
[1] = tested on: Candida albicans virulence genes; experiment: virulence gene expression by qRT-PCR; format: cell-based; settings: hyphal form, RPMI at 37° C., compared with scrambled peptide controls
Procedure: (§1) Candida albicans (sc3514 cited in: Romanowski et al. PLOS One 7: e30119, 2012.: incorporated by reference in its entirety) and Candida tropicalis (ATCC #13803) were maintained in frozen glycerol stocks at −80° C. and streaked out on yeast-peptone-dextrose (YPD) agar plates for 48 hours at 30° C. prior to use. Single colonies were selected and cultured in YPD media at 30° C. Biofilm assays were performed using crystal violet straining (Taff et al. Med Mycol 50:214-218, 2012.: incorporated by reference in its entirety) in the presence of 10-20 uM of respective peptides. To induce hyphal growth, strains were placed in YPD+5% FBS or RPMI media at 37° C. for 4 hours. To image hyphal membrane disruption, the DNA binding fluorescent dye, propidium iodide (PI), was added to wells strains in the presence of peptides and imaged under bright field and far red fluorescent conditions. […] To investigate Candida albican virulence gene expression, 10 μL of a 1.0 OD600 culture were placed in 1 mL RPMI at 37° C. with shaking for 8 hours. Cultures were centrifuged at 3000×g for 5 minutes and RNA isolation was performed as described below.

C. tropicalis = experiment: respiration of C. tropicalis; format: cell-based, Candida tropicalis
[2] = tested on: C. albicans strain SC5314; experiment: crystal violet based biofilm assay (24 hours, OD600); format: cell-based, Candida albicans; settings: crystal violet staining, 10-20 uM of respective peptides
Procedure: FIG. 13. […] Biofilm formation was measured in an assay that quantitates biofilms by staining with a crystal violet dye. The amount of dye absorbed by the biofilm positively correlates with amount of biofilm present. Amount of dye is measured via an optical density reading at a wavelength of 600 nm (OD600). Biofilm formation is measured over 24 hours in the presence or absence of peptides at 10, 30, or 40 uM concentrations.
as §1
Antifungal activity of peptides described in this application was tested by performing a crystal violet based biofilm assay. In this assay, Candida albicans is induced to form a biofilm in a 96-well plate for 24 hours in the presence or absence of peptide. Biofilm formation is quantitated through crystal violet staining and solubilization followed by optical density reading. […] Data are OD600 values normalized to appropriate within experiment vehicle control. Statistical analysis was performed via 2-Way ANOVA with multiple comparisons post-test. Significance is denoted by: *=p<0.05; **=p<0.01; ***-p<0.001; ****=p<0.0001. ns=not significant.

C. albicans = experiment: respiration of C. albicans; format: cell-based, Candida albicans

In the case of Magainin-2, the “C. albicans culture growth” value (Candida albicans) is reported as “inhibited culture growth”, the virulence gene expression [1] is reported as “induced expression of several virulence genes” and the respiration (C. tropicalis; hyphal form) is reported as “suppressed respiration”. For the same substance, the respiration (C. tropicalis; yeast form) was “suppressed activity”, the “inhibition of biofilm formation” value [2] was “inhibit biofilm formation” and the respiration (C. albicans; hyphal form) was “suppressed respiration”. For the same substance, the respiration (C. albicans; yeast form) was “suppressed activity”.
